Laboratory results from paper PMC11882969 (Nature Communications, 2025).
Several values for one entry are separate records, joined by “and”; a condition that tells them apart may be missing. Equal entries are not always repeated. Where two headings read alike, the source gives them in different places.

Molecular target: hCB1 (Homo sapiens, UniProt P21554)
Assay: bioSensAll ebBRET signaling profiling, hCB1
Format: cell-based
Design: host or cells: HEK293SL cells, transient PEI transfection
Settings: for Gi1 hCB1 response: Gi1 biosensor; for Gi1 hCB1 / GoB hCB1: single replicate values, FigS6a; for Emax [95% CI]: normalized to CP-55,940; for EC50: read-out: EC50 [95% CI]
[1] = Log [Compound] (M) -13, individual replicate values

hCB1, sequence (P21554 whole entry): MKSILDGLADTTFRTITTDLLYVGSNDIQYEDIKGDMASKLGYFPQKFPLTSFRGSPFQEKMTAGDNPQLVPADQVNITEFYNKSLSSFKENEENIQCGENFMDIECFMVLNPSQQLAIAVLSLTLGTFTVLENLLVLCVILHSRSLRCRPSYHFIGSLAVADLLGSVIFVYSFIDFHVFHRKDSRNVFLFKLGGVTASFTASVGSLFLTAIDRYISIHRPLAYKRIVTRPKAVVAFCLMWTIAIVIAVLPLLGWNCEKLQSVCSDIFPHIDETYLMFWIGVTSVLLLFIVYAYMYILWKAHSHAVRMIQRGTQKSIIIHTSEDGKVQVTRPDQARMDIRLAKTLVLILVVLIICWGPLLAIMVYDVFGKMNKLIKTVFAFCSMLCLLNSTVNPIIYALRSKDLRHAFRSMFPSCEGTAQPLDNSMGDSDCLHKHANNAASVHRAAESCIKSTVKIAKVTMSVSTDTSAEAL

## Cc1cc(C(=O)N2CC3(CCC3)[C@H]2[C@H]2CCCO2)nn1-c1cccc(C(F)(F)F)c1 [‘1651]
Log [Compound] (M) -4.22186
  Gi1 hCB1 response: 137.59
  Gi1 hCB1: 86.9769
  GoB hCB1: 103.232
Log [Compound] (M) -4.63927
  Gi1 hCB1 response: 96.9225
  Gi1 hCB1: 76.9098
  GoB hCB1: 73.1818
Log [Compound] (M) -5.47381
  Gi1 hCB1 response: 59.4112
  Gi1 hCB1: 51.5496
  GoB hCB1: 47.4476
Log [Compound] (M) -5.89285
  Gi1 hCB1 response: 34.5455
  Gi1 hCB1: 27.4072
  GoB hCB1: 30.9928
Log [Compound] (M) -6.31878
  Gi1 hCB1 response: 22.4595
  Gi1 hCB1: 15.521
  GoB hCB1: 20.7963
Log [Compound] (M) -6.72585
  Gi1 hCB1 response: 13.9098
  Gi1 hCB1: 7.211
  GoB hCB1: 12.2902
Log [Compound] (M) -7.14267
  Gi1 hCB1 response: 3.39
  Gi1 hCB1: 2.849
  GoB hCB1: 6.553
Log [Compound] (M) -7.55284
  Gi1 hCB1 response: 4.644
  Gi1 hCB1: 1.862
  GoB hCB1: 3.478
Log [Compound] (M) -8
  Gi1 hCB1 response: -4.488
  Gi1 hCB1: 1.7386
  GoB hCB1: 4.539
Log [Compound] (M) -8.22186
  Gi1 hCB1 response: -3.346
  Gi1 hCB1: 1.384
  GoB hCB1: -0.5679
Log [Compound] (M) -8.39794
  Gi1 hCB1 response: -8.628
  Gi1 hCB1: 3.142
  GoB hCB1: 1.554
Log [Compound] (M) -8.68787
  Gi1 hCB1 response: -2.138
  Gi1 hCB1: 2.895
  GoB hCB1: -1.036
Log [Compound] (M) -9.15521
  Gi1 hCB1 response: 13.7307
  Gi1 hCB1: 0.4282
  GoB hCB1: -2.079
Log [Compound] (M) -9.61989
  Gi1 hCB1 response: 0.5704
  Gi1 hCB1: 2.402
  GoB hCB1: 0.2413
Log [Compound] (M) -10.0969
  Gi1 hCB1 response: -10.7993
  Gi1 hCB1: 1.754
  GoB hCB1: 3.298
Log [Compound] (M) -10.5529
  Gi1 hCB1 response: 1.622
  Gi1 hCB1: 4.329
  GoB hCB1: 1.32
Log [Compound] (M) -11.0177
  Gi1 hCB1 response: 3.525
  Gi1 hCB1: 1.137
  GoB hCB1: 2.867
Log [Compound] (M) -11.4949
  Gi1 hCB1 response: -1.466
  Gi1 hCB1: 1.492
  GoB hCB1: 0.4571
Log [Compound] (M) -11.9208
  Gi1 hCB1 response: -11.3141
  Gi1 hCB1: 0.7057
  GoB hCB1: 3.784
Log [Compound] (M) -12.3979
  Gi1 hCB1 response: -0.1682
  Gi1 hCB1: 3.419
  GoB hCB1: 6.338
Log [Compound] (M) -12.8861
  Gi1 hCB1 response: 6.054
  Gi1 hCB1: 4.113
  GoB hCB1: 5.3306
[1]
  Gi1 hCB1 response: -5.092 and 7.285
Log [Compound] (M) -5.05788
  Gi1 hCB1: 64.2374
  GoB hCB1: 61.4566
Log [Compound] (M) -13
  Gi1 hCB1: -0.9593 and 2.509
  GoB hCB1: 4.899 and 2.867
hCB1 Gi1
  pEC50 [95% CI]: 5.5 [5.4 – 5.6]
  Emax [95% CI]: 89 [84 – 94]
  EC50: 3.03 µM
hCB1 GoB
  pEC50 [95% CI]: 4.7 [4.1 – 5.4]
  Emax [95% CI]: 152 [94 – 208]
  EC50: 19.8 µM

## Cc1cc(C(=O)N2CC3(CCC3)[C@@H]2[C@@H]2CCCO2)nn1-c1cccc(C(F)(F)F)c1 [‘3386]
Log [Compound] (M) -4.22186
  Gi1 hCB1 response: -31.6589
  Gi1 hCB1: -5.415
  GoB hCB1: -7.725
Log [Compound] (M) -4.63927
  Gi1 hCB1 response: -26.0187
  Gi1 hCB1: -6.833
  GoB hCB1: -8.211
Log [Compound] (M) -5.47381
  Gi1 hCB1 response: -11.5379
  Gi1 hCB1: -2.408
  GoB hCB1: -3.409
Log [Compound] (M) -5.89285
  Gi1 hCB1 response: -4.6
  Gi1 hCB1: -1.499
  GoB hCB1: -1.485
Log [Compound] (M) -6.31878
  Gi1 hCB1 response: 6.86
  Gi1 hCB1: 1.292
  GoB hCB1: 2.327
Log [Compound] (M) -6.72585
  Gi1 hCB1 response: -4.577
  Gi1 hCB1: 0.5361
  GoB hCB1: 1.033
Log [Compound] (M) -7.14267
  Gi1 hCB1 response: -3.682
  Gi1 hCB1: 0.4282
  GoB hCB1: 0.7269
Log [Compound] (M) -7.55284
  Gi1 hCB1 response: 0.369
  Gi1 hCB1: 0.9215
  GoB hCB1: 3.892
Log [Compound] (M) -8
  Gi1 hCB1 response: -1.959
  Gi1 hCB1: 0.7057
  GoB hCB1: 1.158
Log [Compound] (M) -8.22186
  Gi1 hCB1 response: -1.847
  Gi1 hCB1: 1.7386
  GoB hCB1: -4.075
Log [Compound] (M) -8.39794
  Gi1 hCB1 response: 6.792
  Gi1 hCB1: -1.406
  GoB hCB1: 4.1437
Log [Compound] (M) -8.68787
  Gi1 hCB1 response: 5.83
  Gi1 hCB1: 1.2761
  GoB hCB1: -1.251
Log [Compound] (M) -9.15521
  Gi1 hCB1 response: -6.435
  Gi1 hCB1: 1.261
  GoB hCB1: -3.967
Log [Compound] (M) -9.61989
  Gi1 hCB1 response: 5.561
  Gi1 hCB1: 1.816
  GoB hCB1: -0.8377
Log [Compound] (M) -10.0969
  Gi1 hCB1 response: -3.167
  Gi1 hCB1: 0.3511
  GoB hCB1: 1.158
Log [Compound] (M) -10.5529
  Gi1 hCB1 response: 5.808
  Gi1 hCB1: 1.014
  GoB hCB1: 1.536
Log [Compound] (M) -11.0177
  Gi1 hCB1 response: 14.3798
  Gi1 hCB1: 0.7982
  GoB hCB1: 0.4571
Log [Compound] (M) -11.4949
  Gi1 hCB1 response: 4.331
  Gi1 hCB1: 1.029
  GoB hCB1: 2.058
Log [Compound] (M) -11.9208
  Gi1 hCB1 response: 0.6376
  Gi1 hCB1: -0.1422
  GoB hCB1: 1.68
Log [Compound] (M) -12.3979
  Gi1 hCB1 response: 3.01
  Gi1 hCB1: 0.5053
  GoB hCB1: 2.184
Log [Compound] (M) -12.8861
  Gi1 hCB1 response: 17.2222
  Gi1 hCB1: -0.04972
  GoB hCB1: 1.176
[1]
  Gi1 hCB1 response: 0.5257 and -2.921
Log [Compound] (M) -5.05788
  Gi1 hCB1: -4.3047
  GoB hCB1: -5.316
Log [Compound] (M) -13
  Gi1 hCB1: 2.124 and 3.311
  GoB hCB1: 2.399 and 2.327

## Cc1cc(C(=O)N2CC3(CCC3)[C@H]2[C@@H]2CCCO2)nn1-c1cccc(C(F)(F)F)c1 [‘5490]
Log [Compound] (M) -4.22186
  Gi1 hCB1 response: 126.936
  Gi1 hCB1: 94.6851
  GoB hCB1: 96.1825
Log [Compound] (M) -4.63927
  Gi1 hCB1 response: 115.566
  Gi1 hCB1: 84.6644
  GoB hCB1: 79.6378
Log [Compound] (M) -5.47381
  Gi1 hCB1 response: 67.3119
  Gi1 hCB1: 56.452
  GoB hCB1: 52.9325
Log [Compound] (M) -5.89285
  Gi1 hCB1 response: 63.8428
  Gi1 hCB1: 36.6417
  GoB hCB1: 40.0205
Log [Compound] (M) -6.31878
  Gi1 hCB1 response: 33.6054
  Gi1 hCB1: 21.1018
  GoB hCB1: 23.8534
Log [Compound] (M) -6.72585
  Gi1 hCB1 response: 15.275
  Gi1 hCB1: 10.5569
  GoB hCB1: 12.0564
Log [Compound] (M) -7.14267
  Gi1 hCB1 response: 11.8954
  Gi1 hCB1: 5.469
  GoB hCB1: 9.719
Log [Compound] (M) -7.55284
  Gi1 hCB1 response: 0.9509
  Gi1 hCB1: 7.104
  GoB hCB1: 4.971
Log [Compound] (M) -8
  Gi1 hCB1 response: 4.733
  Gi1 hCB1: 4.236
  GoB hCB1: 4.953
Log [Compound] (M) -8.22186
  Gi1 hCB1 response: -9.009
  Gi1 hCB1: 2.062
  GoB hCB1: 0.1334
Log [Compound] (M) -8.39794
  Gi1 hCB1 response: 1.018
  Gi1 hCB1: 3.018
  GoB hCB1: 6.805
Log [Compound] (M) -8.68787
  Gi1 hCB1 response: -1.578
  Gi1 hCB1: 2.71
  GoB hCB1: -2.061
Log [Compound] (M) -9.15521
  Gi1 hCB1 response: -18.3419
  Gi1 hCB1: 2.078
  GoB hCB1: 0.565
Log [Compound] (M) -9.61989
  Gi1 hCB1 response: 1.018
  Gi1 hCB1: 1.014
  GoB hCB1: 0.7988
Log [Compound] (M) -10.0969
  Gi1 hCB1 response: 0.1452
  Gi1 hCB1: 3.712
  GoB hCB1: 2.4173
Log [Compound] (M) -10.5529
  Gi1 hCB1 response: 4.89
  Gi1 hCB1: 2.602
  GoB hCB1: 1.752
Log [Compound] (M) -11.0177
  Gi1 hCB1 response: 13.5964
  Gi1 hCB1: 1.5536
  GoB hCB1: 4.395
Log [Compound] (M) -11.4949
  Gi1 hCB1 response: -2.608
  Gi1 hCB1: 3.327
  GoB hCB1: 4.324
Log [Compound] (M) -11.9208
  Gi1 hCB1 response: 1.712
  Gi1 hCB1: 2.772
  GoB hCB1: 3.352
Log [Compound] (M) -12.3979
  Gi1 hCB1 response: -1.959
  Gi1 hCB1: 2.124
  GoB hCB1: 2.741
Log [Compound] (M) -12.8861
  Gi1 hCB1 response: -5.584
  Gi1 hCB1: 2.556
  GoB hCB1: 2.3094
[1]
  Gi1 hCB1 response: 3.39 and 3.458
Log [Compound] (M) -5.05788
  Gi1 hCB1: 72.2386
  GoB hCB1: 59.1548
Log [Compound] (M) -13
  Gi1 hCB1: 3.496 and 2.864
  GoB hCB1: 2.327 and 3.748
hCB1 Gi1
  pEC50 [95% CI]: 5.6 [5.5 – 5.6]
  Emax [95% CI]: 98 [94 – 102]
  EC50: 2.8 µM
hCB1 GoB
  pEC50 [95% CI]: 5.2 [4.8 – 5.6]
  Emax [95% CI]: 118 [94 – 143]
  EC50: 6.73 µM
hCB1 Gz
  pEC50 [95% CI]: 5.6 [5.2 – 6.1]
  EC50: 2.47 µM
